Measured values taken from ChEMBL document CHEMBL1151897, “Limazepines A-F, pyrrolo[1,4]benzodiazepine Antibiotics from an Indonesian Micrococcus sp” (2009).
Activity calls are given as the source filed them. No cut-off for these calls is given here.

Experiments:
[1] = test system: Pseudomonas aeruginosa; assay: Antibacterial activity against Pseudomonas aeruginosa at 30 ug/disk; assay type: functional
[2] = test system: Candida albicans; assay: Antifungal activity against Candida albicans; assay type: functional, organism-based
[3] = test system: Rhizomucor miehei; assay: Antifungal activity against Mucor miehei; assay type: functional, organism-based
[4] = test system: Staphylococcus aureus; assay: Antibacterial activity against Staphylococcus aureus at 30 ug/disk; assay type: functional; details: for zone of inhibition at 30 µg/disc: read-out: IZ
[5] = test system: Escherichia coli; assay: Antibacterial activity against Escherichia coli at 30 ug/disk; assay type: functional, organism-based
[6] = test system: Bacillus subtilis; assay: Antibacterial activity against Bacillus subtilis; assay type: functional, organism-based
[7] = test system: Staphylococcus aureus; assay: Antibacterial activity against Staphylococcus aureus at 40 ug/disk; assay type: functional; details: for zone of inhibition at 40 µg/disc: read-out: IZ
[8] = test system: Escherichia coli; assay: Antibacterial activity against Escherichia coli at 40 ug/disk; assay type: functional; details: for zone of inhibition at 40 µg/disc: read-out: IZ
[9] = test system: Pseudomonas aeruginosa; assay: Antibacterial activity against Pseudomonas aeruginosa at 40 ug/disk; assay type: functional, organism-based
[10] = test system: Pseudomonas aeruginosa; assay: Antibacterial activity against Pseudomonas aeruginosa at 1 ug/disk; assay type: functional; details: read-out: IZ
[11] = test system: Staphylococcus aureus; assay: Antibacterial activity against Staphylococcus aureus at 1 ug/disk; assay type: functional; details: read-out: IZ
[12] = test system: Escherichia coli; assay: Antibacterial activity against Escherichia coli at 1 ug/disk; assay type: functional; details: read-out: IZ
[13] = test system: Pseudomonas aeruginosa; assay: Antibacterial activity against Pseudomonas aeruginosa at 24 ug/disk; assay type: functional, organism-based
[14] = test system: Escherichia coli; assay: Antibacterial activity against Escherichia coli at 24 ug/disk; assay type: functional, organism-based
[15] = test system: Staphylococcus aureus; assay: Antibacterial activity against Staphylococcus aureus at 24 ug/disk; assay type: functional, organism-based

SMILES | Activity [2] | Activity [3] | inhibition zone (IZ) [5] | Activity [6] | inhibition zone (IZ) [9] | inhibition zone (IZ) [1] | further results
CCc1cc2cnc3c(O)c(OC)ccc3c(=O)n2c1 [LIMAZEPINE D] | inactive | inactive | inactive | inactive |  |  | zone of inhibition at 30 µg/disc ([1]; read-out: IZ): 9 mm; zone of inhibition at 30 µg/disc [4]: 7 mm
C/C=C1\C[C@H]2C=Nc3c(ccc(OC)c3O)C(=O)N2C1 [LIMAZEPINE E] | inactive | inactive |  | inactive | inactive |  | zone of inhibition at 40 µg/disc [7]: 12 mm; zone of inhibition at 40 µg/disc [8]: 10 mm
CC1(C)S[C@@H]2[C@H](NC(=O)[C@H](N)c3ccccc3)C(=O)N2[C@H]1C(=O)O [AMPICILLIN] | inactive | inactive |  | inactive |  |  | zone of inhibition at 1 µg/disc [10]: 30 mm; zone of inhibition at 1 µg/disc [11]: 13 mm; zone of inhibition at 1 µg/disc [12]: 25 mm
C/C=C1\C[C@H]2C=Nc3ccccc3C(=O)N2C1 | inactive | inactive | inactive | inactive |  | inactive | inhibition zone (IZ) [4]: inactive
CCC1=CN2C(=O)c3ccc(OC)c(O)c3N=C[C@@H]2C1 [LIMAZEPINE C] | inactive | inactive |  | inactive | inactive |  | zone of inhibition at 40 µg/disc [7]: 18 mm; zone of inhibition at 40 µg/disc [8]: 10 mm
C/C=C1\C[C@H]2[C@@H](O)Nc3ccccc3C(=O)N2C1 | inactive | inactive | inactive | inactive |  | inactive | inhibition zone (IZ) [4]: inactive
CCc1c[nH]c(C=O)c1 | inactive | inactive |  | inactive |  |  | inhibition zone (IZ) [13]: inactive; inhibition zone (IZ) [14]: inactive; inhibition zone (IZ) [15]: inactive
COC(=O)c1ccc(OC)c(O)c1N | inactive | inactive | inactive | inactive |  | inactive | zone of inhibition at 30 µg/disc [4]: 11 mm
CCC1=CN2C(=O)c3ccc(OC)c(O)c3NC(=O)[C@@H]2C1 | inactive | inactive |  | inactive | inactive |  | inhibition zone (IZ) [7]: inactive; inhibition zone (IZ) [8]: inactive
